{"source": "patent US11154593B2", "about": "“CNP prodrugs with large carrier moieties” (ASCENDIS PHARMA GROWTH DISORDERS A/S, priority 2016, dated 2021)", "key": {"recombinant human NEP": {"target": "recombinant human NEP (Homo sapiens, UniProt P08473)", "sequence (P08473 whole entry)": "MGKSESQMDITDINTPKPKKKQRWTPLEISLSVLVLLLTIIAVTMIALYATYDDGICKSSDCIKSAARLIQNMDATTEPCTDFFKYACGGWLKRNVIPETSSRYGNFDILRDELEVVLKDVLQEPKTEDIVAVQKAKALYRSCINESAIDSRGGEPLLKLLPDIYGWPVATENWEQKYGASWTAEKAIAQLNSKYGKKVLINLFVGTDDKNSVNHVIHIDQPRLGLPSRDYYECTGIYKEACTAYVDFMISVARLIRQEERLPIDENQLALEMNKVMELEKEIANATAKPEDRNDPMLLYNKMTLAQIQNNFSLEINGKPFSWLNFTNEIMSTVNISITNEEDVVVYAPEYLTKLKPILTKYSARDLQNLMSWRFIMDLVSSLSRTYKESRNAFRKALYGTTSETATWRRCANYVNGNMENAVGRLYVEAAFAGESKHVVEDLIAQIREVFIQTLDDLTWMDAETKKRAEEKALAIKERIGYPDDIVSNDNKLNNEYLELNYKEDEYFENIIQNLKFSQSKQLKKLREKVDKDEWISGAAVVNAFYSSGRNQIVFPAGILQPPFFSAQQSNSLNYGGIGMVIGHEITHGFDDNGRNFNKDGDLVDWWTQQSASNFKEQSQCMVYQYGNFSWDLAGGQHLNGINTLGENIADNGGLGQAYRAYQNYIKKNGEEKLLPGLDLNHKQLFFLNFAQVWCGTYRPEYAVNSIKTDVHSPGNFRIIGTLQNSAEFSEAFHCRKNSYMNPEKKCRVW", "assay": "Digest of CNP variants by Neutral Endopeptidase in vitro (NEP digest assay)", "conditions": "pH 7.4", "method": "(§1) In order to determine the in vitro stability of various CNP variants including different peptide chain lengths and PEGylations using different PEGylation sites and PEG molecules in the presence of Neutral Endopeptidase (NEP), a NEP digest assay was established. This assay monitored the decrease of the non-digested CNP variant (normalized with the internal standard PFP) over time in reference to the t0-time point.\n(§2) In detail, recombinant human NEP (2.5 μg/mL final concentration) and the standard pentafluorophenol (PFP; 40 μg/mL final concentration) were added to the CNP variant (100 μg CNP equivalents/mL) in digest buffer (50 mM Tris-HCl, pH 7.4, 10 mM NaCl). The solution was incubated at 37° C. and 500 rpm for up to 4 days. Samples were taken at different time intervals. The reaction was stopped by a combined reduction and heat denaturation adding TCEP (tris(2-carboxyethyl)phosphine; 25 mM final concentration) and incubating the mixture at 95° C., 500 rpm for 5 minutes. The resulting reaction products were assigned using HPLC-MS. The half life of each CNP variant was calculated via the ratio change in the HPLC-UV peak areas of CNP and PFP over time."}, "NPR-B": {"target": "T1, NPR-B (Mus musculus, UniProt Q6VVW5)", "T1 construct": "These cells express endogenously NPR-B on the cell surface; endogenous in cells; host or cells: NIH-3T3 (murine embryo fibroblasts)", "T1 sequence (Q6VVW5 17-1047)": "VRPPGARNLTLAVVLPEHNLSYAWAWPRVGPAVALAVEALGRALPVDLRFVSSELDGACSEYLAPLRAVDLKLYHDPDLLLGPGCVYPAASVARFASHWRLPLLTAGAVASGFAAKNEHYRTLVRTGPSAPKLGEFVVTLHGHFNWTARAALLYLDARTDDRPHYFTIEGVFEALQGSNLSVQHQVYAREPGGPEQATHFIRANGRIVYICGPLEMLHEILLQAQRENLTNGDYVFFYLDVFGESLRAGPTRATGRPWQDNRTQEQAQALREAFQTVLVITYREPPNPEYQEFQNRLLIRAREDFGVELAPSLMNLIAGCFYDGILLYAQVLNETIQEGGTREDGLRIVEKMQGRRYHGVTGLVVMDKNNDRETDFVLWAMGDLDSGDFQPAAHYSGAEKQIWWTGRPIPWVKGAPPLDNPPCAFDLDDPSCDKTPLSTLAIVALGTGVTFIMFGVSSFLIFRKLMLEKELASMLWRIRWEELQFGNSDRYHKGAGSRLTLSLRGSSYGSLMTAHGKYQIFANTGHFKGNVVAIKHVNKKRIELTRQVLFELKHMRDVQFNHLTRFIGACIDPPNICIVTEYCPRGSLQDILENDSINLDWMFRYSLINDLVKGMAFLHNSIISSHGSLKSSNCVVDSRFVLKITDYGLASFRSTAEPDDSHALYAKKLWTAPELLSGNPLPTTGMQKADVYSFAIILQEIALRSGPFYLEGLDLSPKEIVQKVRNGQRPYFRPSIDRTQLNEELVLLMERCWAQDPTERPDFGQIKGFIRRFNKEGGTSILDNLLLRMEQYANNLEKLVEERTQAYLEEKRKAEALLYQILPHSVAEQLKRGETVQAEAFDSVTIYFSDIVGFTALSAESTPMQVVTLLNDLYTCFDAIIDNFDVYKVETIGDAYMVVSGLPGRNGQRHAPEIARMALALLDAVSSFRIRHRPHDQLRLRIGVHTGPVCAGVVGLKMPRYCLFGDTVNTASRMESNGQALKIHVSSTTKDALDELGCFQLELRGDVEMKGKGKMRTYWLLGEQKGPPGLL", "assay": "Functional cGMP stimulation in NIH-3T3 cells with CNP variants", "assay_type": "cell-based, Murine", "conditions": "cGMP TR-FRET, 30 min, 37° C.", "description": "Functional activity of CNP variants were determined in a cell-based assay with NIH-3T3 cells (Murine Embryo Fibroblast cell line). These cells express endogenously NPR-B on the cell surface. Stimulation of NPR-B with CNP leads to intracellular production of the second messenger cGMP which is detected with a commercially available cGMP assay. NIH-3T3 cells were routinely cultured in DMEM F-12 medium with 5% FBS and 5 mM glutamine at 37° C. and 5% CO2. For each assay, 50,000 cells were resuspended in stimulation buffer (Dulbecco's PBS with IBMX) and incubated with the CNP variants in different concentrations. CNP (dilutions were made in PBS with 0.2% BSA). After incubation of 30 min at 37° C. and 5% CO2, the cells were lyzed and cGMP levels were determined with a commercially available cGMP TR-FRET assay (Cisbio, cGMP kit, Cat. No. 62GM2PEB). PEGylated CNP variants were always characterized in comparison with the non-PEGylated version in the same experiment batch. If possible, evaluation of the residual activity was done via the EC50- parameter of the resulting dose-response curve (restricted model with common slope).\nAfter 7 d, released CNP-38 was isolated by RP-HPLC and analyzed for bioactivity as described in Example 22."}, "NPR-C": {"target": "T2, NPR-C (Homo sapiens, UniProt P17342)", "T2 sequence (P17342 27-541)": "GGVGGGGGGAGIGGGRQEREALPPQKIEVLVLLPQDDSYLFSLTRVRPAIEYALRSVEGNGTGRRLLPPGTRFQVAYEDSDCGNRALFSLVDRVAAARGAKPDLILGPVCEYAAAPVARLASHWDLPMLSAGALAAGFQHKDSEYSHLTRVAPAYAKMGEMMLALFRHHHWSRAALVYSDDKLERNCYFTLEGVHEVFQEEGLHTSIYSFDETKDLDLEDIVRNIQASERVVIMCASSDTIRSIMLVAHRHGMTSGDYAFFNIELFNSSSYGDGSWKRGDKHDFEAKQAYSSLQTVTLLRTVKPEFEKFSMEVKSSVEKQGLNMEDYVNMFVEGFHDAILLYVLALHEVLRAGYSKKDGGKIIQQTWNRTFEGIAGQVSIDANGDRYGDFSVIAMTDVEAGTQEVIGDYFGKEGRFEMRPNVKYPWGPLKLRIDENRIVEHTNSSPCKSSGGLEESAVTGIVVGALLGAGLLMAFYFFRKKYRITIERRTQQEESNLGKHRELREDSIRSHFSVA", "assay": "NPR-C affinity assay (competition with fluorescein-labelled CNP 27d, flow cytometry)", "conditions": "NPR-C expressing Hek293 cell line"}, "[1]": {"conditions": "doses up to 15 μg/kg, healthy volunteers; cited from earlier work"}, "[2]": {"conditions": "in vivo; cited from earlier work"}, "[3]": {"assay": "Evaluation of cardiovascular effects in the conscious telemetered mouse (subcutaneous administration)", "assay_type": "in vivo", "conditions": "for MAP during the remaining ten time points versus vehicle / change in MAP at the 5, 15 and 30 min post dose time points compared to predose / MAP (mean ± SD): 800 μg CNP-38 (eq)/kg sc; for MAP during the remaining ten time points versus vehicle: 1 to 48 hours postdose; for change in MAP at the 5, 15 and 30 min post dose time points compared to predose: CNP-38: 3 of 4 animals", "description": "Male Crl:CDl(ICR) mice (age range 8-13 weeks and body weight range 27.3-35.6 g at start of dosing) were surgically implanted with a TA11PA-C10 telemetry transmitter (Data Sciences International (DSI)) in the carotid artery. The body of the transmitter was placed subcutaneously in the lateral flank of the mouse. The mice were dosed subcutaneously in a latin square crossover design with at least 72 hours between dosing occasions. […] At least four mice were included at each dose level. Blood pressure (systolic (SAP), diastolic (DAP) and mean (MAP) and heart rate (HR, derived from blood pressure), were recorded using a digital data capture system linked with a DSI™ Ponemah data acquisition and analysis system. The capture system allowed recording of the cardiovascular parameters whilst the mice were in individual cages. On the day of each test session the animals were weighed and a predose recording was performed for at least 60 min prior to dosing. Each mouse was returned to the home cage and the cardiovascular parameters were recorded for approximately 48 hours postdose. Blood pressure and HR were reported at the following time points: -30, -20, -10, 5, 15 and 30 min postdose and 1, 2, 6, 12, 18, 24, 30, 36, 42 and 48 hours postdose. Each time point was presented as the average value of five minute's recording prior to the time point. The monitoring period was selected to cover exposure to the test items both prior to and after Tmax."}, "[4]": {"target": "Neutral Endopeptidase (NEP) (Homo sapiens, UniProt P08473)", "sequence (P08473 whole entry)": "as the sequence (P08473 whole entry) above", "assay": "in vitro", "conditions": "pH 7.4", "method": "as §1, §2"}, "[5]": {"assay": "Pharmacokinetic profile of CNP-38 after subcutaneous single-dose administration to cynomolgus monkeys", "assay_type": "in vivo", "method": "Blood samples were collected at 5, 10, 15, 30, 45 min and 1, 2, 4, 8 hours upon dose.\nMethod: Plasma levels of CNP were analysed using a commercially available competitive radioimmuno-assay (RK-012-03, Phoenix Pharmaceuticals, CA). The assay was applied essentially as described by the manufacturer. The assay is based on competitive binding between 1251-labelled CNP (supplied in the kit) and unlabeled CNP (from study sample or calibrants) to an anti-CNP antibody. […] By measuring the amount of 1251-labelled CNP bound as a function of the concentration of peptide, it is possible to construct a calibration curve from which the concentration of peptide in the sample can be determined.\nA few changes to the supplied assay protocol were made. These changes included using in-house CNP calibrant and QC samples to secure consistency between assay runs. […] Due to matrix effects in monkey plasma, the minimal required dilution was set at 1:10, yielding an assay range of 150-1080 μg/mL CNP."}, "[6]": {"conditions": "male, cynomolgus monkey, in vivo, sc, 40 ug/kg"}}, "note": "Like-named read-outs stand apart in the source and are kept apart here."}
{"compound": "Permanent Lys16 CNP-34 PEG 5 kDa Conjugate [Conjugate 17e]", "values": [{"measurement": "half life norm.", "setting": "recombinant human NEP", "result": 54.23, "unit": "h"}]}
{"compound": "Permanent N-Terminal CNP-38 PEG 5 kDa Conjugate [Conjugate 15e]", "values": [{"measurement": "EC50 compound/EC50 CNP-38 (residual NPR-B activity)", "setting": "NPR-B", "result": ">5"}, {"measurement": "IC50 of PEGylated CNP-38/IC50 CNP-38 (residual NPR-C affinity)", "setting": "NPR-C", "result": 0.53}, {"measurement": "half life norm. [h]", "setting": "recombinant human NEP", "result": "Almost no proteolysis"}]}
{"compound": "Permanent Lys26 CNP-38 PEG 5 kDa Conjugate [Conjugate 19e]", "values": [{"measurement": "EC50 compound/EC50 CNP-38 (residual NPR-B activity)", "setting": "NPR-B", "result": ">100"}, {"measurement": "IC50 of PEGylated CNP-38/IC50 CNP-38 (residual NPR-C affinity)", "setting": "NPR-C", "result": 1.1}, {"measurement": "half life norm.", "setting": "recombinant human NEP", "result": 62.76, "unit": "h"}]}
{"compound": "Permanent Lys26 CNP-38 PEG4×10 kDa Conjugate [Conjugate 12g]", "values": [{"measurement": "half life norm. [h]", "setting": "recombinant human NEP", "result": "Almost no proteolysis"}]}
{"compound": "BMN-111", "values": [{"measurement": "blood pressure effect", "setting": "[1]", "result": "mild hypotension"}, {"measurement": "half-life", "setting": "[2]", "result": 0.333, "unit": "h"}]}
{"compound": "Permanent N-Terminal CNP-34 PEG 5 kDa Conjugate [Conjugate 14e]", "values": [{"measurement": "half life norm. [h]", "setting": "recombinant human NEP", "result": "Almost no proteolysis"}]}
{"compound": "Reversible Lys26 CNP-38 PEG4×10 kDa Conjugate [Conjugate 11i]", "values": [{"measurement": "MAP during the remaining ten time points versus vehicle", "setting": "[3]", "result": "no difference in MAP"}, {"measurement": "change in MAP at the 5, 15 and 30 min post dose time points compared to predose", "setting": "[3]", "result": "physiological increase in MAP"}, {"measurement": "MAP (mean ± SD)", "setting": "[3]; 5 min post dose", "result": "122.8 ± 5.9", "unit": "mmHg"}, {"measurement": "MAP (mean ± SD)", "setting": "[3]; 15 min post dose", "result": "121.5 ± 7.5", "unit": "mmHg"}, {"measurement": "MAP (mean ± SD)", "setting": "[3]; 30 min post dose", "result": "111.5 ± 13.7", "unit": "mmHg"}, {"measurement": "MAP (mean ± SD)", "setting": "[3]; predose", "result": "106.4 ± 10.7", "unit": "mmHg"}, {"measurement": "effect on blood pressure (conclusion)", "setting": "[3]; subcutaneous, dosage equivalent to CNP-38", "result": "did not decrease blood pressure"}]}
{"compound": "CC[C@H](C)[C@@H]1NC(=O)[C@H](CCCNC(=N)N)NC(=O)[C@H](CC(=O)O)NC(=O)[C@H](CC(C)C)NC(=O)[C@H](CCCCN)NC(=O)[C@H](CC(C)C)NC(=O)CNC(=O)[C@H](Cc2ccccc2)NC(=O)[C@@H](NC(=O)CNC(=O)[C@H](CCCCN)NC(=O)[C@H](CO)NC(=O)[C@H](CC(C)C)NC(=O)CNC(=O)[C@H](CCCCN)NC(=O)[C@H](CCCCN)NC(=O)[C@H](CC(N)=O)NC(=O)[C@H](C)NC(=O)CNC(=O)[C@H](CCCCN)NC(=O)[C@H](Cc2ccc(O)cc2)NC(=O)[C@H](CCCCN)NC(=O)[C@H](CCCNC(=N)N)NC(=O)[C@H](C)NC(=O)[C@H](CC(N)=O)NC(=O)[C@@H]2CCCN2C(=O)[C@H](Cc2c[nH]cn2)NC(=O)[C@H](CCC(=O)O)NC(=O)[C@H](CCC(N)=O)NC(=O)[C@@H](N)CC(C)C)CSSC[C@@H](C(=O)O)NC(=O)CNC(=O)[C@H](CC(C)C)NC(=O)CNC(=O)[C@H](CO)NC(=O)[C@H](CCSC)NC(=O)[C@H](CO)NC(=O)CNC1=O", "note": "[CNP-38, reference compound]", "values": [{"measurement": "half-life at 100 μg CNP equivalents/mL", "setting": "[4]", "result": 12.1, "unit": "h"}, {"measurement": "AUC(0-t)", "setting": "[5]; [6]", "result": 2.5, "unit": "ng·h/mL"}, {"measurement": "Cmax", "setting": "[5]; [6]", "result": 7.9, "unit": "ng/mL"}, {"measurement": "Tmax", "setting": "[5]; [6]", "result": 0.167, "unit": "h"}, {"measurement": "half-life", "setting": "[5]; male, cynomolgus monkey, in vivo, sc, 40 ug/kg, Half-life (mean)", "result": "~7", "unit": "min"}, {"measurement": "tolerability", "setting": "[5]; single s.c. 40 μg/kg", "result": "well tolerated"}, {"measurement": "MAP during the remaining ten time points versus vehicle", "setting": "[3]", "result": "no difference in MAP"}, {"measurement": "change in MAP at the 5, 15 and 30 min post dose time points compared to predose", "setting": "[3]", "result": "significant decrease in MAP"}, {"measurement": "MAP (mean ± SD)", "setting": "[3]; 5 min post dose", "result": "102.0 ± 7.5", "unit": "mmHg"}, {"measurement": "MAP (mean ± SD)", "setting": "[3]; 15 min post dose", "result": "89.5 ± 29.4", "unit": "mmHg"}, {"measurement": "MAP (mean ± SD)", "setting": "[3]; 30 min post dose", "result": "99.5 ± 25.2", "unit": "mmHg"}, {"measurement": "MAP (mean ± SD)", "setting": "[3]; predose", "result": "106.8 ± 13.4", "unit": "mmHg"}]}
{"compound": "Permanent Lys22 CNP-34 PEG 5 kDa Conjugate [Conjugate 18e]", "values": [{"measurement": "half life norm.", "setting": "recombinant human NEP", "result": 38.87, "unit": "h"}]}
